The text below walks through data of patent US9403805B2, “Antiviral compounds” (Hoffmann-La Roche Inc., priority 2012, dated 2016).

Structures are written as SMILES.

The test system of the assay is HCV GT1b replicon. Description: HCV GT1b replicon luciferase reporter assay (2209-23 cells). The format is cell-based. The settings on record: Hepatitis C virus, genotype 1a / genotype 1b; 2209-23 cells (Huh-7 with GT-1b Con1 subgenomic replicon), Renilla luciferase read 72 hours after compound addition; read-out: GT-1a - EC50 (nM) HCV, GT1b, IC50 (µM). The source says:
Determination of compounds HCV GT1b inhibitory replicon activity using the replicon luciferase reporter assay
The 2209-23 cell line was developed at Roche by stable transfection of the hepatoma cell line Huh-7 with a GT-1b Con1 subgenomic bicistronic replicon as previously described. Subgenomic replicon cell line was established in cured Huh7 cells, obtained from R. Bartenschlager (J Virol. 2003 March; 77 (5):3007-19) The GT-1a H77 subgenomic replicon vector pRLuc H77 1b 75 S/I, was created by replacing the nonstructural region of the GT-1b Con1 subgenomic replicon by the one of the H77 strain, except for the first 75 amino acids of the NS3 protein that are from GT-1b Conl strain. (J. Virol. 2001 77:5352-59) The GT-1a pRLuc H77 1b 75 S/I subgenomic replicon cell line was established in cured Huh7 cells, obtained from R. Bartenschlager. (J Virol. 2003 March; 77 (5):3007-19)
All the subgenomic replicon cell lines were cultured in Dulbecco's Modified Eagle Medium (DMEM-Glutamax™-I; Invitrogen Cat #10569-010). The medium was supplemented with 10% Fetal Bovine Serum (Invitrogen Cat #10082-147), 1% penicillin/streptomycin (Mediatech Cat #30-002-CI) and 500 μg/ml of G418 (Mediatech Cat #30-234-CI). Cells were maintained at 37° C. in a humidified 5% CO2 atmosphere.
2209-23 cells were plated at a cell density of 5000 cells per well in 96 well plates (Becton Dickinson, Cat #35 3296). Cells were plated in 90 μl of Dulbecco's Modified Eagle Medium (DMEM-Glutamax™-I), (Invitrogen Cat #10569-010) medium was supplemented with 5% Fetal Bovine Serum (Invitrogen Cat #10082-147), 1% penicillin/streptomycin (Mediatech Cat #30-002-CI). The pRluc H77 1b 75 SA cells were plated in 96-well plate at 3000 cells/well in DMEM-Glutamax™-I containing 5% FBS and 1% penicillin/streptomycin in 90 μl final volume. Cells were allowed to equilibrate for 24 hours at 37° C. and 5% CO2 at which time compounds were added. Compounds (or medium as a control) were added 24 hours post-plating in 3 fold dilutions at a final DMSO concentration of 1% in 10 μl volume. Renilla luciferase reporter signal was read 72 hours after addition of compounds using the Renilla Luciferase Assay System (Promega, cat #E2820). EC50 values were defined as the compound concentration at which a 50% reduction in the levels of renilla luciferase reporter was observed as compared to control samples in the absence of compound and was determined by non-linear fitting of compound dose-response data. The EC50 was approximated if maximum percentage inhibition was less than 90% and more than 70%.

As for `COC(=O)[C@@H]1C[C@H](NC(=O)c2ccc3ccccc3c2O)CN1CC1CCCCC1` [Compound I-10, (2S,4S)-1-Cyclohexylmethyl-4-[(1-hydroxy-naphthalene-2-carbonyl)-amino]-pyrrolidine-2-carboxylic acid methyl ester], the IC50 (commonly the concentration at which inhibition is half-maximal) amounted to 120 nM.

For the compound `CCCNC(=O)[C@@H]1C[C@H](NC(=O)c2ccc3ccccc3c2O)CN1CC1CCCCC1` [Compound I-16, (2S,4S)-1-Cyclohexylmethyl-4-[(1-hydroxy-naphthalene-2-carbonyl)-amino]-pyrrolidine-2-carboxylic acid propylamide], the IC50 is 205 nM.

`COC(=O)[C@@H]1C[C@H](NC(=O)c2ccc3ccccc3c2O)CN1CCC(C)(C)C` [Compound I-2, (2S,4S)-1-(3,3-Dimethyl-butyl)-4-[(1-hydroxy-naphthalene-2-carbonyl)-amino]-pyrrolidine-2-carboxylic acid methyl ester]: the IC50 stood at 79 nM.

With `COC(=O)[C@H]1C[C@H](NC(=O)c2ccc3ccccc3c2O)CN1CC1CCCCC1` [Compound I-20, (2R,4S)-1-Cyclohexylmethyl-4-[(1-hydroxy-naphthalene-2-carbonyl)-amino]-pyrrolidine-2-carboxylic acid methyl ester], the IC50 was 233 nM.
